Changes are numbered by the printed parent chain.

This note sets out measurements from US20100317046A1, “Non-Endogenous, Constitutively Activated Versions of Human G Protein Coupled Receptor: FSHR” (priority 2002, published 2010).

The target in assay [1] is T1, non-endogenous FSHR ("L460R") (Homo sapiens, UniProt P23945, E197A/L198V/L460R/N112T).
T1 construct: expressed in transfected cells
T1 sequence (P23945 18-695 N112T/E197A/L198V/L460R): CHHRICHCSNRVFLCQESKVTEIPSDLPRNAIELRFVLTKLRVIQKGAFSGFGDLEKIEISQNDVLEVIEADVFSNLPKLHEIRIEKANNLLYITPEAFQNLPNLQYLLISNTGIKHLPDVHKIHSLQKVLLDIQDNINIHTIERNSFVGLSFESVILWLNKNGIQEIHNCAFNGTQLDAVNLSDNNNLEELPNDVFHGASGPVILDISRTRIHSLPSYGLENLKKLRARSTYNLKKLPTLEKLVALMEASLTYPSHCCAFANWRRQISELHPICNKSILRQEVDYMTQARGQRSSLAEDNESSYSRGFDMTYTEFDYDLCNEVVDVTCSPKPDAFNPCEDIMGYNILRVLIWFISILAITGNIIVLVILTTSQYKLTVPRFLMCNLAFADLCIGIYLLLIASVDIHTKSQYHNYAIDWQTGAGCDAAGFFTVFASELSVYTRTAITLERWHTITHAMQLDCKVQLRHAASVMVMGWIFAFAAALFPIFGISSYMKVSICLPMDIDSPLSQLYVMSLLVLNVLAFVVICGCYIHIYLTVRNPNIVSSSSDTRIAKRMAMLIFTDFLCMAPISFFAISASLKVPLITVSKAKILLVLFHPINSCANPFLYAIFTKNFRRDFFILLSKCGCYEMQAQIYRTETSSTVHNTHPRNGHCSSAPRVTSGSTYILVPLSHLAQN
As to the kind of experiment: Alpha Screen cAMP accumulation, non-endogenous constitutively activated FSHR (L460R). In kind it is cell-based. The settings on record: L460R versus WT, FIG. 3. As to the method: (§1) Approximately 12×10^6 293 cells are plated on a 15 cm tissue culture plate. Grown in DME High Glucose Medium containing ten percent fetal bovine serum and one percent sodium pyruvate, L-glutamine, and anti-biotics. Twenty-four hours following plating of 293 cells (or to ˜80% confluency), the cells are transfected using 12 μg of DNA. The 12 μg of DNA is combined with 60 μl of lipofectamine and 2 mL of DME High Glucose Medium without serum. The medium is aspirated from the plates and the cells are washed once with medium without serum. The DNA, lipofectamine, and medium mixture are added to the plate along with 10 mL of medium without serum. Following incubation at 37 degrees Celsius for four to five hours, the medium is aspirated and 25 ml of medium containing serum is added. Twenty-four hours following transfection, the medium is aspirated again, and fresh medium with serum is added. Forty-eight hours following transfection, the medium is aspirated and medium with serum is added containing geneticin (G418 drug) at a final concentration of 500 μg/mL. The transfected cells will undergo selection for positively transfected cells containing the G418 resistant gene. […]
(§2) The media from Example 3(b) above was aspirated and rinsed 1× with PBS (5-10 ml/flask). […] Following incubation, the wells were read on Alpha Quest and measured for light units. […]

Another assay concerns the target T2, endogenous FSHR ("WT") (Homo sapiens, UniProt P23945, E197A/L198V/N112T).
T2 construct: The 2.1 kb PCR fragment was then cloned into EcoRV-EcoRI site of CMVp expression vector; expressed in transfected cells
T2 sequence (P23945 18-695 N112T/E197A/L198V): T1 sequence (P23945 18-695 N112T/E197A/L198V/L460R) with R443L
In words: Alpha Screen cAMP accumulation, endogenous FSHR (WT). Type of assay: cell-based. The settings on record: 293 cells expressing WT FSHR, FIG. 3. The procedure: as §1, §2

As to `CCCCCc1ccc(C(=O)N2CCCCC2C(=O)Nc2ccc3c(c2)c2ccccc2n3CC)c(=O)o1` (centres unmarked) [Compound A, 1-[(2-oxo-6-pentyl-2H-pyran)-3-carbonyl]-piperidine-2-carboxylic acid-3-(9-ethylcarbazolyl) amide], in assay [1], the “efficacy for L460R version of FSHR compared with the WT receptor” value is reported as “better efficacy”. This compound also showed an EC50 on endogenous FSHR ("WT") of roughly 3 nM.

As usually defined, the EC50 is the midpoint of the concentration-response curve. A higher EC50 goes with lower potency in that assay.
